Test results published in patent US5182387A, “Bis-dibenzoazepine compounds” (Merrell Dow Pharmaceuticals Inc., priority 1991, dated 1993).
Values after ≈ are worked out from the molar mass of the structure shown. Counter-ions that a name gives are not always drawn. Like-named read-outs stand apart in the source and are kept apart here.

Legend:
[1] = system: multidrug resistant Plasmodium falciparum clone W-2; experiment: reversal of the chloroquine resistance in clone W-2; type: cell-based
Experimental: (§1) Referring to Table 2, the antimalarial activity of compounds of formula 1 were tested using the multidrug resistant Plasmodium falciparum clone W-2. The methods for the growth of the malaria parasite, the testing of drugs for antimalarial effects and the clone are described in Science 242, 1301-1303 1988.

[2] = system: multidrug resistant Plasmodium falciparum clone W-2; experiment: antimalarial activity using multidrug resistant Plasmodium falciparum clone W-2; type: cell-based; settings: read-out: IC50, ng/ml CLONE W-2
Experimental: as §1

[3] = system: chloroquine-resistant Plasmodium falciparum; experiment: synergistic effect with chloroquine, isobologram analysis; type: cell-based; settings: chloroquine-resistant P. falciparum, data not shown
Experimental: Isobologram analysis was carried out according to the method of Martin, et al., (1987) Science 235, 899-901 and Berenbaum, (1978) Journal of Infectious Diseases 137, 122-130 (data not shown).

[4] = system: chloroquine-sensitive strain of Plasmodium falciparum (clone D6); experiment: antimalarial activity against chloroquine-sensitive strain of Plasmodium falciparum (clone D6); type: cell-based
Experimental: As shown by Table 1, the compounds of the present invention have antimalarial activity on their own without other antimalarial agents. This antimalarial activity can be tested using a number of methods. For example, the compounds of formula 1 listed in Table 1 were tested for antimalarial activity against chloroquine-sensitive strain of Plasmodium falciparum (clone D6).
The methods for the growth of the malaria parasite, the testing of drugs for antimalarial effects and the clone are described in Science 242, 1301-1303 1988.

Plasmodium falciparum = settings: as described in Science 242, 1301-1303 1988; cited from earlier work
[5] = 50% reversal of the chloroquine resistance in clone W-2, read-out: Conc. in ng/ml for 50% Reversal of chloroquine
[6] = chloroquine-sensitive clone D6, read-out: IC50, ng/ml CLONE D6
[7] = D6, read-out: IC50, ng/ml CLONE D6

SMILES | EC50 [1, 5] | IC50 [2] | synergistic effect with antimalarial agents [3] | IC50 [4, 6] | IC50 [4, 7] | EC50 ([1]; read-out: Conc. in ng/ml for 50% Reversal of chloroquine) | utility in reversing chloroquine resistance (Plasmodium falciparum)
CN(CCCN1c2ccccc2CCc2ccccc21)CC(=O)N(C)CCCN1c2ccccc2CCc2ccccc21 [Example 1, N,N'-Bis[3-(10,11-dihydro-5H-dibenzo[b,f]azepino)propyl]-N,N'-dimethylacetamide Oxalate] | > 200 ng/mL | 3570 ng/mL | – | – | – | – | –
CN(CCCN1c2ccccc2CCc2ccccc21)CCN(C)CCCN1c2ccccc2CCc2ccccc21 [Example 2, N,N'-Bis[3-(10,11-dihydro-5H-dibenzo[b,f]azepino)propyl]-N,N'-dimethylethanediamine Maleate] | > 200 ng/mL | 1510 ng/mL | – | – | – | – | –
CN(CCCN(C)CCCN1c2ccccc2CCc2ccccc21)CCCN1c2ccccc2CCc2ccccc21 [Example 3, N,N'-Bis[3-(10,11-dihydro-5H-dibenzo[b,f]azepino)propyl]-N,N'-dimethylpropanediamine Maleate] | 72 ng/mL | 385 ng/mL | – | – | – | – | –
CN(CCCCN(C)CCCN1c2ccccc2CCc2ccccc21)CCCN1c2ccccc2CCc2ccccc21 [Example 4, N,N'-Bis[3-(10,11-dihydro-5H-dibenzo[b,f]azepino)propyl]-N,N'-dimethylbutanediamine Fumarate] | 14 ng/mL | 56 ng/mL | synergistic effect with chloroquine | 240 ng/mL | – | – | –
CN(CCCCCN(C)CCCN1c2ccccc2CCc2ccccc21)CCCN1c2ccccc2CCc2ccccc21 [Example 5, N,N'-Bis[3-(10,11-dihydro-5H-dibenzo[b,f]azepino)propyl]-N,N'-dimethylpentanediamine Maleate] | 56 ng/mL | 180 ng/mL | – | – | – | – | –
CN(CCCCCCN(C)CCCN1c2ccccc2CCc2ccccc21)CCCN1c2ccccc2CCc2ccccc21 [Example 6, N,N'-Bis[3-(10,11-dihydro-5H-dibenzo[b,f]azepino)propyl]-N,N'-dimethylhexanediamine Fumarate] | 52 ng/mL | 140 ng/mL | – | 210 ng/mL | – | – | –
c1ccc2c(c1)CCc1ccccc1N2CCCNCCCCNCCCN1c2ccccc2CCc2ccccc21 [Example 8, N,N'-Bis[3-(10,11-dihydro-5H-dibenzo[b,f]azepino)propyl]butanediamine Maleate] | 105 ng/mL | 110 ng/mL | – | 48 ng/mL | – | – | –
c1ccc2c(c1)CCc1ccccc1N2CCCN1CCN(CCCN2c3ccccc3CCc3ccccc32)CC1 [Example 9, 1,4-Bis[3-(10,11-dihydro-5H-dibenzo[b,f]azepino)propyl]piperazine Maleate] | > 200 ng/mL | > 5000 ng/mL | – | – | – | – | –
CCN(CC)CCCC(C)Nc1ccnc2cc(Cl)ccc12 (centres unmarked) [chloroquine, reference compound] | – | 160 ng/mL (≈ 0.5 µM) | – | – | 7 ng/mL (≈ 0.0219 µM) | – | –
CNCCCN1c2ccccc2CCc2ccccc21 [desipramine, reference compound] | – | 300 ng/mL (≈ 1.13 µM) | – | – | 15000 ng/mL (≈ 56.3 µM) | 35 ng/mL | shown to have utility in reversing chloroquine resistance
